Test results from US20250154169A1, “COMPOUNDS AND METHODS FOR MODULATING SPLICING” (REMIX THERAPEUTICS INC., priority 2021, published 2025).
pIC50: −log10 of the molar value. Like-named read-outs stand apart in the source and are kept apart here.

How the values were obtained:
Format in all cases: cell-based, human
HTT mRNA [1] = experiment: Splicing RT-qPCR gene panel, HTT canonical junction (CJ) mRNA; conditions: Homo sapiens, Tables 4A/4B, read-out: HTT (IC50, decrease in CJ mRNA, gene panel)
In short: (§1)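 Canonical-junction mRNA levels were quantified by RT-qPCR in lysates, using ΔΔCt against a housekeeping gene (GAPDH, GUSB or PPIA) and DMSO wells, expressed as percentage response. Cells (A673 or K562) had been exposed for 24 h at 37° C. to 11 three-fold compound concentrations up to 10 uM, DMSO ≤0.25%.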

Target C mRNA = experiment: Splicing RT-qPCR gene panel, Target C canonical junction (CJ) mRNA; conditions: Tables 4A/4B, read-out: Target C (IC50, decrease in CJ mRNA, gene panel)
In short: as §1

MYB mRNA = experiment: Splicing RT-qPCR assay, MYB canonical (CJ) and alternative (AJ) junction mRNA; conditions: Homo sapiens; for AC50: read-out: MYB AJ (AC50, increase in alternative junction mRNA)
In short: (§2)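 One-step RT-qPCR on cell lysates, CJ and AJ isoforms quantified; housekeeping normalization GAPDH/GUSB (K562) or PPIA (A673). Cells: A673 in DMEM/10% FBS or K562 in IMDM/10% FBS. Compounds 11-pt 3-fold, top 10 uM, 24 h, 37 °C, 5% CO2.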

SMN2 mRNA = experiment: Splicing RT-qPCR gene panel, SMN2 canonical junction (CJ) mRNA; conditions: Homo sapiens, Tables 4A/4B, read-out: SMN2 (IC50, decrease in CJ mRNA, gene panel)
In short: as §1

HTT mRNA [2] = experiment: Splicing RT-qPCR assay, HTT canonical (CJ) and alternative (AJ) junction mRNA; conditions: Homo sapiens, A673 or K562 cells, 24 hours compound treatment; for pIC50: 24 h, read-out: HTT CJ (IC50, decrease in canonical junction mRNA); for AC50: read-out: HTT AJ (AC50, increase in alternative junction mRNA)
In short: as §2

[3] = 24 h, A673 or K562 cells, 24 hours compound treatment, RT-qPCR
[4] = 24 h, A673 or K562 cells, 24 hours compound treatment, RT-qPCR, read-out: MYB CJ (IC50, decrease in canonical junction mRNA)
[5] = Tables 4A/4B, canonical junction qPCR panel, read-out: MYB (IC50, decrease in CJ mRNA, gene panel)

Structure (SMILES) | pIC50 (HTT mRNA [1]) | pIC50 (Target C mRNA; Homo sapiens) | AC50 (MYB mRNA; [3]) | pIC50 (MYB mRNA; [4]) | pIC50 (MYB mRNA; [5]) | pIC50 (SMN2 mRNA) | pIC50 (HTT mRNA [2]) | AC50 (HTT mRNA [2]) | pIC50 (Target C mRNA)
Cc1cn2cc(NC(=O)c3ccc(N4CCNCC4)c4cc(C)oc34)ncc2n1 [Compound 263] | 5.00 to 6.00 | 5.00 to 6.00 | 100 to 1000 nM | 6.00 to 7.00 | 6.00 to 7.00 | > 7.00 | 5.00 to 6.00 | 1000 to 10000 nM | –
Cc1cn2nc(NC(=O)c3ccc(N4CCNCC4)c4cc(C)oc34)nc2c(C)n1 [Compound 264] | < 5.00 | < 5.00 | > 10000 nM | < 5.00 | < 5.00 | < 5.00 | < 5.00 | > 10000 nM | –
Cc1cn2nc(NC(=O)c3ccc(N4CCNCC4)c4cc(C)oc34)cc2c(C)n1 [Compound 265] | < 5.00 | < 5.00 | > 10000 nM | < 5.00 | < 5.00 | 5.00 to 6.00 | < 5.00 | > 10000 nM | –
Cc1cn2cc(NC(=O)c3ccc(N4CCNCC4)c4cc(C)oc34)cc(Cl)c2n1 [Compound 266] | 5.00 to 6.00 | < 5.00 | < 100 nM | 6.00 to 7.00 | 6.00 to 7.00 | > 7.00 | 5.00 to 6.00 | 1000 to 10000 nM | –
Cc1cn2cc(NC(=O)c3ccc(N4CCNCC4)c4cc(C)oc34)cc(C)c2n1 [Compound 267] | < 5.00 | < 5.00 | 100 to 1000 nM | 5.00 to 6.00 | 5.00 to 6.00 | > 7.00 | < 5.00 | 1000 to 10000 nM | –
Cc1cc2c(N3CCNCC3)ccc(C(=O)Nc3cn[nH]c3)c2o1 [Compound 268] | < 5.00 | < 5.00 | > 10000 nM | < 5.00 | < 5.00 | < 5.00 | < 5.00 | > 10000 nM | –
Cc1cn2cc(NC(=O)c3ccc(N4CCNCC4)c4cn(C)nc34)cc(Cl)c2n1 [Compound 269] | 6.00 to 7.00 | – | < 100 nM | > 7.00 | > 7.00 | > 7.00 | 6.00 to 7.00 | 100 to 1000 nM | 5.00 to 6.00
Cn1cc2c(N3CCNCC3)ccc(C(=O)Nc3cn[nH]c3)c2n1 [Compound 270] | < 5.00 | < 5.00 | > 10000 nM | < 5.00 | < 5.00 | < 5.00 | < 5.00 | > 10000 nM | –
Cc1cn2cc(NC(=O)c3ccc(C4CC(C)(C)NC(C)(C)C4)c4cc(C)oc34)cc(F)c2n1 [Compound 271] | < 5.00 | < 5.00 | 1000 to 10000 nM | 5.00 to 6.00 | 5.00 to 6.00 | 6.00 to 7.00 | < 5.00 | > 10000 nM | –
Cc1cn2cc(NC(=O)c3ccc(N4CCC(N5CCCC5)C4)c4cn(C)nc34)cc(F)c2n1 (stereo not shown) [Compound 272] | 6.00 to 7.00 | 6.00 to 7.00 | < 100 nM | 6.00 to 7.00 | 6.00 to 7.00 | > 7.00 | 6.00 to 7.00 | 100 to 1000 nM | –
Cc1cn2cc(NC(=O)c3ccc(N4CCNCC4)c4cn(C)nc34)nc2c(C)n1 [Compound 273] | < 5.00 | < 5.00 | 100 to 1000 nM | 6.00 to 7.00 | 6.00 to 7.00 | > 7.00 | < 5.00 | > 10000 nM | –
Cc1cn2cc(NC(=O)c3ccc(N4CC(C)(C)NC(C)(C)C4)c4cn(C)nc34)cc(F)c2n1 [Compound 274] | 5.00 to 6.00 | < 5.00 | 100 to 1000 nM | 6.00 to 7.00 | 6.00 to 7.00 | > 7.00 | 5.00 to 6.00 | > 10000 nM | –
Cc1cn2cc(NC(=O)c3ccc(N4CCNCC4)c4cn(C)nc34)cc(C(F)(F)F)c2n1 [Compound 275, 2-methyl-N-[2-methyl-8-(trifluoromethyl)imidazo[1,2-a]pyridin-6-yl]-4-(piperazin-1-yl) indazole-7-carboxamide] | 5.00 to 6.00 | < 5.00 | < 100 nM | 6.00 to 7.00 | 6.00 to 7.00 | > 7.00 | 5.00 to 6.00 | 1000 to 10000 nM | –
Cc1cn2cc(NC(=O)c3ccc(N4CCC(N(C)C)C4)c4cn(C)nc34)cc(Cl)c2n1 (stereo not shown) [Compound 278] | 5.00 to 6.00 | 5.00 to 6.00 | < 100 nM | 6.00 to 7.00 | 6.00 to 7.00 | > 7.00 | 5.00 to 6.00 | 1000 to 10000 nM | –
Cc1cn2cc(-c3ccc(C(=O)NC4CCNCC4)c4nn(C)cc34)cc(F)c2n1 [Compound 280] | 5.00 to 6.00 | < 5.00 | 1000 to 10000 nM | < 5.00 | < 5.00 | 5.00 to 6.00 | 5.00 to 6.00 | 1000 to 10000 nM | –
Cc1cn2nc(-c3ccc(C(=O)NC4CCNCC4)c4nn(C)cc34)cc(C)c2n1 [Compound 281] | 5.00 to 6.00 | 5.00 to 6.00 | 1000 to 10000 nM | 5.00 to 6.00 | 5.00 to 6.00 | 6.00 to 7.00 | 5.00 to 6.00 | 1000 to 10000 nM | –
Cc1cn2nc(-c3ccc(C(=O)NC4CCNCC4)c4oc(C)cc34)cc(C)c2n1 [Compound 282] | 5.00 to 6.00 | < 5.00 | > 10000 nM | < 5.00 | < 5.00 | 6.00 to 7.00 | 5.00 to 6.00 | 1000 to 10000 nM | –
